{
  "source": "patent US10301332B2",
  "about": "“Method of selectively releasing nitric oxide depending on change in pH using calcium phosphate” (INSTITUTE FOR BASIC SCIENCE, priority 2015, dated 2019)",
  "assay": "Release of nitric oxide depending on pH (Sievers NOA nitric oxide detector)",
  "type": "physicochemical",
  "settings": "1 mg in 40 ml DPBS, pH 7.4 (FIG. 8)",
  "protocol": "FIGS. 8 to 10 illustrate results obtained using a nitric oxide detector (Sievers NOA, GE analytical instruments, USA) in order to confirm a nitric oxide release behavior of the synthesized CaP—NO depending on the change in pH. FIG. 8 illustrates a result of observing the nitric oxide release behavior after adding 1 mg of AEATS to 40 ml of Dulbecco's Phosphate-Buffered Saline (DPBS, pH 7.4). […] FIG. 9 illustrates a result of confirming a nitric oxide release behavior of CaP—NO depending on a change in pH. […] When the pH was increased to 7.4 again, nitric oxide was not released, and as a result of observing the nitric oxide release behavior while repeatedly changing the pH, it was confirmed that when the pH was 5, nitric oxide was released.",
  "data": [
    {"smiles": "CO[Si](CCCNCCN)(OC)OC", "note": "[AEATS, N-(2-aminoethyl)-3-aminopropyl trimethoxysilane]", "values": [
      {"measurement": "nitric oxide release behavior", "result": "a large amount of nitric oxide was released"}
    ]}
  ]
}
